Reference: patent US20100210597A1, “C21-Deoxy Ansamycin Derivatives as Antitumor Agents” (priority 2007, published 2010)
Values after ≈ are worked out from the molar mass of the structure shown. Values joined by “and” are separate entries in the source; they are usually repeats but may differ in a detail not shown here. Equal values may be shown once. Read-outs that look alike come from different tables or passages of the source.

How the values were obtained:
[1] = Solubility assay in 2% DMSO in PBS; format: physicochemical; conditions: 2% DMSO in PBS pH 7.3, 0.5 mM, shaken up to six hours
Procedure: To analyse the solubilities of 17-AAG, geldanamycin, 18,21-dihydromacbecin and macbecin, solutions (25 mM) of the test compounds were prepared by dissolving 3-5 mg aliquots in the appropriate amount of DMSO.
Aliquots (0.01 mL) were added to 0.490 mL of pH 7.3 PBS in glass vials. For each time point, 3 PBS vials were prepared in amber glass vials. For the six hour time point triplicate aliquots in DMSO were also prepared.
The resulting 0.5 mM solutions were shaken for up to six hours, with vials removed for analysis at 1, 3 and 6 hours. Samples were analysed by HPLC (0.025 mL injections). Compounds were quantified by peak area measurement at 274 nm.
Solubility in 2% DMSO in PBS at each time point was determined by comparing total peak areas for each chromatogram with mean total peak area for chromatograms produced from the corresponding 6 hour DMSO solutions. (Mean total peak area in DMSO solutions was assumed to be equivalent to a 0.5 mM solution). The solubility of compound 17 was measured by a thermodynamic assay as described in the general methods.

[2] = Aqueous solubility by direct dissolution; format: physicochemical; conditions: pH 4.5, aqueous buffer, aqueous 5 mM citrate, pH 4.5; limit not tested
Text: It is not possible to measure the solubility of 20 and 23 by this method due to their intrinsic high aqueous solubility.

[3] = In vitro cleavage assay in buffer; format: physicochemical; conditions: for half-life at 0.1 mg/ml: read-out: half-life of disappearance (converted)
Procedure: Samples were monitored by LC-UV, on an Agilent 1100 HPLC. Chromatography was achieved over a Phenomenex Hyperclone column, BDS C18 3 u (150×4.6 mm):
Mobile phase A: 0.1% Formic acid in water Mobile phase B: 0.1% Formic acid in acetonitrile Flow rate: 1 mL/minute: Gradient, t=0 mins, B=10%; t=2 mins, B=10%; t=20 mins, B=100%.
Compound 23 elutes at 12.1 mins and compound 17 elutes at 11.2 minutes in these conditions.
0.05 ml injections were made, repeatedly from the same sample every 3.18 hours, for 50 hours. the ambient temperature was 23 degrees C. The UV response was measured for each time point for compound 23 and 17. The half-life of disappearance of compound 23 was calculated thus:
the natural logarithm of the response was plotted with respect to time (in hours). The slope and fit of the resultant line was calculated and the half life, t1/2=(In 2)/lambda. Where lambda is the slope of the graph.

Hsp90 = Hsp90 (Homo sapiens, UniProt P07900); conditions: cited from earlier work
[4] = system: panel of human tumour cell lines; assay: Monolayer proliferation assay, mean across cell line panel; format: cell-based; conditions: geometric mean of all replicates across six cell lines
Procedure: In vitro evaluation of compounds for anticancer activity in a panel of human tumour cell lines in a monolayer proliferation assay was carried out at the Oncotest Testing Facility, Institute for Experimental Oncology, Oncotest GmbH, Freiburg.
The Oncotest cell lines are established from human tumor xenografts as described by Roth et al., (1999). The origin of the donor xenografts is described by Fiebig et al., (1999). Other cell lines are either obtained from the NCl (DU145, MCF-7) or purchased from DSMZ, Braunschweig, Germany.
All cell lines, unless otherwise specified, are grown at 37° C. in a humidified atmosphere (95% air, 5% CO2) in a ‘ready-mix’ medium containing RPMI 1640 medium, 10% fetal calf serum, and 0.1 mg/mL gentamicin (PAA, Cölbe, Germany).
A modified propidium iodide assay was used to assess the effects of the test compound(s) on the growth of six human tumour cell lines (Dengler et al., (1995)).
Briefly, cells are harvested from exponential phase cultures by trypsinization, counted and plated in 96 well flat-bottomed microtitre plates at a cell density dependent on the cell line (5-10.000 viable cells/well). […] After thawing the plates, fluorescence was measured using the Cytofluor 4000 microplate reader (excitation 530 nm, emission 620 nm), giving a direct relationship to the total number of viable cells.
Growth inhibition is expressed as treated/control×100 (% T/C). […]

`COC1CC(C)C(OC)c2cc(O)cc(c2O)NC(=O)/C(C)=C\C=C/C(C)C(OC(N)=O)/C(C)=C\C(C)C1OC` (stereo not drawn) [18,21-dihydromacbecin] showed a solubility [1] of 136 µM (≈ 76.3 µg/mL).

Work on `C=CCNC1=C2C[C@@H](C)C[C@H](OC)[C@H](O)[C@@H](C)/C=C(\C)[C@H](OC(N)=O)[C@@H](OC)/C=C\C=C(/C)C(=O)NC(=CC1=O)C2=O` [Compound 17-AAG, 17-(allylamino)-17-desmethoxy geldanamycin] yielded a solubility [1] of 171 µM (≈ 100 µg/mL).

In the case of `CNCCN(C)C(=O)Oc1cc2cc(c1)NC(=O)/C(C)=C/CC[C@H](C)[C@@H](OC(N)=O)/C(C)=C/[C@H](C)[C@@H](O)[C@@H](OC)C[C@H](C)C2` [Compound 23, 18-O-(N,N′-dimethylethylenediaminecarbamoyl)-4,5-dihydro-11-O-demethyl-15-demethoxy-18,21-didehydro-18-hydroxy-21-deoxomacbecin], the solubility [2] is reported as ≥ 3000 µg/mL and ≥ 4600 µM, the half-life of disappearance ([3]; 0.1 M potassium phosphate buffer pH 4.5, 23 degrees C) is reported as “not calculable (zero slope)” and the half-life at 0.1 mg/ml ([3]; 0.1 M potassium phosphate buffer pH 5.9, 23 degrees C) is reported as 69.3 h. It also gave a half-life at 0.1 mg/ml ([3]; 0.1 M potassium phosphate buffer pH 6.5, 23 degrees C) of 11.9 h, a half-life at 0.1 mg/ml ([3]; 0.1 M potassium phosphate buffer pH 7.4, 23 degrees C) of 2 h and a half-life at 0.1 mg/ml ([3]; 5% glucose, 23 degrees C) of 32 h. For the same compound, the product of cleavage ([3]; by LC-UV-MS) was “compound 17”.

In the case of `CO[C@H]1C[C@H](C)Cc2cc(O)cc(c2)NC(=O)/C=C/CC[C@H](OC)[C@@H](OC(N)=O)/C(C)=C/[C@H](C)[C@H]1O` [KOSN1559], the “binding affinity to Hsp90, greater than 17-AAG” value (Hsp90; relative to 17-AAG) is given as 8 fold and the “binding affinity to Hsp90, greater than geldanamycin” value (Hsp90; relative to geldanamycin) is given as 4 fold.

For `CO[C@H]1[C@@H](OC)C[C@H](C)[C@@H](OC)C2=CC(=O)C=C(NC(=O)/C(C)=C/C=C\[C@H](C)[C@@H](OC(N)=O)/C(C)=C/[C@@H]1C)C2=O` [macbecin, reference compound], the “average IC70 value across the cell-line panel” value [4] was 0.21 µg/mL.
